Results as given in patent US9730906B2, “α-derivatives of cis-monounsaturated fatty acids for use as medicines” (UNIVERSITAT DE LES ILLES BALEARS, priority 2008, dated 2017).

What was measured:
Type in all cases: cell-based, human
lung cancer cells (A549) = experiment: Culture plate invasion model, lung cancer cells (A549); details: 50 μM and 100 μM, different times, vs untreated cells, p<0.05
Protocol: FIG. 5A. Invasive capacity of lung cancer cells (A549) in culture, in the absence (control, C) or presence of OHOD (2-hydroxy-9-cis-octadecenoic acid) at 50 μM (M50) and 100 μM (M100) and at different times.
FIG. 5B. Invasive capacity of lung cancer cells (A549) in culture, in the absence (control, C) or presence of OHOD (2-hydroxy-9-cis-octadecenoic acid) at 50 μM (M50) and 100 μM (M100) and at different times.
(§1) Furthermore, α-derivatives of cis-monounsaturated fatty acids are capable of inducing cadherin expression. Cadherin is a cellular adhesion protein. Cells expressing cadherin are often not displaced from their tissue location as they adhere to the surrounding cells. Tumour cells that lose the capacity to synthesise this protein can migrate from the tissue in which they were generated to other body tissues where they can develop a new tumour focus by the process known as metastasis. In treatments with α-derivatives of cis-monounsaturated the fatty acids, a significant increase in cadherin levels was observed (FIG. 4). The invasive capacity of cancer cells was also investigated in a culture plate invasion model. […] Then, an area of the culture dish is scraped and the number of cells invading this region at various times, in the presence and absence of the anti-metastasis compound is counted.

C-6 = experiment: Effect of OHOD on cancer cells in culture (Table 2); design: key to Anti-tumour effect: + [inhibition of growth]; ++ [total halt of growth]; +++ [total removal of tumour cells]; details: C-6, Glio-Brain
Protocol: (§2) Also, a series of α-derivatives of cis-monounsaturated fatty acids were used to investigate their effectiveness in cancer treatment. Two types of experiment were performed. Firstly, the dependency of the anti-tumour effect on concentration was investigated. To perform these experiments, human lung cancer cells (A549) were cultivated in RPMI medium, supplemented with 10% foetal bovine […], 10 mM Hepes (pH 7.4), 2 mM glutamine, 2 g/l bicarbonate, 1 g/l glucose, 100 units/ml penicillin, 0.1 mg/ml streptomycin, 0.25 μg/ml Amphotericin B, at 37° C. and in the presence of 5% CO2. In a first experimental series, these cells were treated with various concentrations (0-400 μM) of OHOD and MOD11 and the number of cells was determined by flow cytometry (FIG. 3A). […] In a second series, the anti-tumour effectiveness on A549 lung cancer cells was investigated at a single concentration (150 μM) and a time of 48 hours (FIG. 3B). […] Obviously, among the previous molecules, some lacked both modifications on the α-carbon and the double bond in cis configuration (EO, HDO, ODO) and had no therapeutic effect.
(§3) In a second experimental series, designed to discover whether these molecules are effective in treatment of different types of tumours, the effect of OHOD at various concentrations on human cells of different types of cancer was studied. These experiments were performed as described before, except that the M220 and HT-29 cell lines were cultured in DMEM medium and the MDA-MB-231 line was incubated in Leibowitz L-15 medium supplemented with 15% foetal bovine […]. […] Where the nature of the tumour process requires, application can be topical (use on the skin of active products for the treatment of melanoma and other cutaneous abnormalities of cancerous nature), which can be considered as cosmetic treatments when attempts are made to correct aesthetic defects.

PC3 = experiment: as above; design: key to Anti-tumour effect: + [inhibition of growth]; ++ [total halt of growth]; +++ [total removal of tumour cells]; details: PC3, Prostate
Protocol: as §2, §3

HL-60 = experiment: as above; design: key to Anti-tumour effect: + [inhibition of growth]; ++ [total halt of growth]; +++ [total removal of tumour cells]; details: HL-60, Myel-Leukaemia
Protocol: as §2, §3

M220 = experiment: as above; design: key to Anti-tumour effect: + [inhibition of growth]; ++ [total halt of growth]; +++ [total removal of tumour cells]; key to Mechanism of action: P [anti-proliferative]; D [differentiation]; A [apoptosis]; details: M220, Pancreas
Protocol: as §2, §3

Jurkat = experiment: as above; design: key to Anti-tumour effect: + [inhibition of growth]; ++ [total halt of growth]; +++ [total removal of tumour cells]; key to Mechanism of action: P [anti-proliferative]; D [differentiation]; A [apoptosis]; details: Lym-Leukaemia
Protocol: as §2, §3

HT-29 = experiment: as above; design: key to Anti-tumour effect: + [inhibition of growth]; ++ [total halt of growth]; +++ [total removal of tumour cells]; key to Mechanism of action: P [anti-proliferative]; D [differentiation]; A [apoptosis]; details: HT-29, Colon
Protocol: as §2, §3

L-1210 = experiment: as above; design: key to Anti-tumour effect: + [inhibition of growth]; ++ [total halt of growth]; +++ [total removal of tumour cells]; key to Mechanism of action: P [anti-proliferative]; D [differentiation]; A [apoptosis]; details: L-1210, Lym-Leukaemia
Protocol: as §2, §3

T98G = experiment: as above; design: key to Anti-tumour effect: + [inhibition of growth]; ++ [total halt of growth]; +++ [total removal of tumour cells]; key to Mechanism of action: P [anti-proliferative]; D [differentiation]; A [apoptosis]; details: Glioma
Protocol: as §2, §3

MDA-MB-231 = experiment: as above; design: key to Anti-tumour effect: + [inhibition of growth]; ++ [total halt of growth]; +++ [total removal of tumour cells]; key to Mechanism of action: P [anti-proliferative]; D [differentiation]; A [apoptosis]; details: MDA-MB-231, Breast
Protocol: as §2, §3

cadherin = experiment: Cadherin levels in A549 cells (antibody, confocal microscopy); details: 50 μM OHOD (48 h)
Protocol: FIG. 4. Cancer cells (A549) were incubated in the absence (FIG. 4A) and presence (FIG. 4B) of OHOD ([…], 48 h). Then they were fixed, incubated in the presence of an antibody against cadherin and were observed by confocal microscopy. Treatments with 50 μM OHOD (48 h) induced an increase of 73.6±5.4% in the levels of this protein. In treatments with the fatty acids of the invention, a significant increase in cadherin levels was observed.
as §1

CCCCCCCC/C=C\CCCCCCC(O)C(=O)O (stereo not drawn) [OHOD, α-Hydroxy-cis-Δ9-octadecenoic]
invasive capacity (number of invasive cells) (lung cancer cells (A549)): lower invasive capacity
Anti-tumour effect (C-6): +++
Mechanism of action (C-6): P D
Anti-tumour effect (PC3): +++
Mechanism of action (PC3): P A
Anti-tumour effect (HL-60): +++
Mechanism of action (HL-60): P D A
Anti-tumour effect (M220): ++
Mechanism of action (M220): A
Anti-tumour effect (Jurkat): +++
Mechanism of action (Jurkat): A
Anti-tumour effect (HT-29): ++
Mechanism of action (HT-29): A
Anti-tumour effect (L-1210): +++
Mechanism of action (L-1210): A
Anti-tumour effect (T98G): +++
Mechanism of action (T98G): D
Anti-tumour effect (MDA-MB-231): ++
Mechanism of action (MDA-MB-231): A
increase in the levels of cadherin (cadherin): 73.6±5.4%
